Source: patent publication US10919891B2, “Heterocyclic compound” (TAKEDA PHARMACEUTICAL COMPANY LIMITED, priority 2017, dated 2021)

Experiments:
CYP3A = test: CYP Induction (CYP3A activity in cryopreserved hepatocytes, P450-Glo CYP3A4 assay); format: in vitro ADME; conditions: % of positive control (inducibility by 10 μmol/L rifampicin = 100%); hepatocytes treated 3 days
Experimental: Cryopreserved hepatocytes were thawed in a culture medium (In VitroGRO™ CP Medium, Celsis In Vitro Technologies, U.S.A.), and the resultant was added to BioCoat™ Matrigel® Matrix Thin-Layer 96 well (Becton, Dickinson and Company, U.S.A.) at a concentration of 40,000 cells/well. After culturing for 24 hours, the culture medium was removed, and replaced with an incubation medium (In VitroGRO™, HI Medium with Torpedo Antibiotic Mix, Celsis In Vitro Technologies, U.S.A.). Cells were cultured for an additional 3 days. The medium was removed on day 4, and the remained cells were treated in the induction medium containing a test compound for 3 days in the presence or absence of 10 μmol/L rifampicin. The induction medium was replaced every day. The test compound addition wells in the presence of 10 μmol/L rifampicin were used to evaluate the inhibitory effect of the test compound on the inducibility of the CYP3A activity by rifampicin. The CYP3A activity was evaluated by measuring luciferin generating amount after the addition of 2 μmol/L luciferin-IPA using IPA P450-Glo™ CYP3A4 assay systems (Promega Corporation, U.S.A.). All cultures were carried out under a humidified environment at 37° C., 5% CO2. The inducibility by rifampicin was defines as 100%, and the inducibility of the test compound (% of positive control) was calculated from the following equation: [(luciferin fluorescence intensity in the absence of rifampicin and the presence of test compound)−(luciferin fluorescence intensity in the absence of rifampicin and test compound)/(luciferin fluorescence intensity in the presence of rifampicin and the absence of test compound)−(Luciferin fluorescence intensity in the absence of rifampicin and test compound)]×100.

CSQ-Tg mice [1] = test: Effect on survival rate of heart failure animal model; format: in vivo
Excerpt: In this Test Example, effect of the compound of Example 1 on survival rate was examined using heart failure animal models. The mice reported in Larry R. Jones et al., J. Clin. Invest. 101: 1385-1393, 1998 were obtained from the University of Pennsylvania and bred in-house, which were cardiac-specific transgenic mice of Calsequestrin (CSQ)(CSQ-Tg mice) as the heart failure animal models. In the study, female mice were used, and dosing was started from the age of 5 weeks. The animals were fed with chow (CE-2, CLEA Japan, Inc.) and tap water under the condition of room temperature of 20 to 26° C., humidity of 40 to 70%, and lighting time of 12 hours/day (7:00 to 19:00). As already reported, in the CSQ-Tg mice, Ca^2+ intracellular release was suppressed, myocardial contraction was reduced, cardiac output was decreased, and cardiac hypertrophy and heart failure were developed.
To 5-week old female CSQ-Tg mice, the compound of Example 1 was orally administered at a dose of 10 mg/kg bodyweight/day with a frequency of once daily (QD) for 47 days (n=24). While, to the control group, vehicle (0.5% methylcellulose aqueous solution) was administered (n=24).
To 5-week old female CSQ-Tg mice, the compound of Example 1 was orally administered at a dose of 10 mg/kg bodyweight/day in combination with candesartan cilexetil (1 mg/kg bodyweight/day) with a frequency of once daily (QD) for 68 days (n=18). […]

CSQ-Tg mice [2] = test: Heart weight lowering effect in heart failure animal model; format: in vivo; conditions: for Heart weight (Mean ± standard deviation (mg)): female CSQ-Tg mice
Experimental: In this Test Example, the heart weight lowering effect of the compound of Example 1 was evaluated using CSQ-Tg mice as animal model for heart failure.
The compound of Example 1 was suspended in 0.5% methylcellulose aqueous solution (hereinafter, in Test Examples, sometimes referred to as “vehicle”) (10 mL/kg). The obtained suspension was orally administered to 5-week old female CSQ-Tg mice developing heart failure at a dose of 10 mg/kg bodyweight/day (n=7) or 30 mg/kg bodyweight/day (n=10) once daily (QD) for 21 days. For a negative control (vehicle administration group), 0.5% methylcellulose aqueous solution (n=7) was administered. Then, weights of the hearts were measured. The measurement of the weights was carried out by fractionating each of the hearts into four: left ventricle, right ventricle, left atrium, and right atrium. The sum of the weights of the four fractions was defined as the heart weight.

CYP3A4 = target: T1, CYP3A4 (Homo sapiens, UniProt P08684); test: CYP3A4 TDI (human liver microsomes, testosterone 6β-hydroxylation); format: in vitro ADME; conditions: test compound 30 μM, 60 min vs 0 min preincubation with NADPH, 37° C.
T1 construct: Human liver microsomes purchased from XenoTech, LLC (Lenexa, Kans.) was used; tissue XenoTech, LLC; host or cells: human liver microsomes
T1 sequence (P08684 whole entry): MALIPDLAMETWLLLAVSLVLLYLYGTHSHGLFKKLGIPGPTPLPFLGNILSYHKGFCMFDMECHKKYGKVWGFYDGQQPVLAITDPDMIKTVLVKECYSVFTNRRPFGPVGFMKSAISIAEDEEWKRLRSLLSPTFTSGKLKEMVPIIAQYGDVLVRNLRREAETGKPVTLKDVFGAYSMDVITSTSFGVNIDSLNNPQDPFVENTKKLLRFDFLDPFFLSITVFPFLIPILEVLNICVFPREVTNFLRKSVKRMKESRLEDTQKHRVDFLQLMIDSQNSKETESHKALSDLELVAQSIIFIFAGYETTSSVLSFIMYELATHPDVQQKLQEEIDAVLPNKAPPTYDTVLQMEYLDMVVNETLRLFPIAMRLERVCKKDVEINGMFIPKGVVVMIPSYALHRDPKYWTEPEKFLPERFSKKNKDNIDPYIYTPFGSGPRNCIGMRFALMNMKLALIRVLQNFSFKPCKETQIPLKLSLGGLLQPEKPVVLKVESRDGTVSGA
Experimental: Human liver microsomes purchased from XenoTech, LLC (Lenexa, Kans.) was used. Test compounds were dissolved in acetonitrile, acetonitrile/methanol (1:1, v/v) or DMSO/acetonitrile (1:4, v/v). To a human liver microsomes solution adjusted with phosphate buffer (pH 7.4), the test compound solution was added to obtain a human liver microsomes reaction solution having the test compound concentration of 30 μM. To the human liver microsome reaction solution, NADPH production system was added, and the mixture was preincubated at 37° C. for 0 minutes or 60 minutes. After the preincubation, probe substrate testosterone was added, and testosterone metabolite 6β-hydroxytestosterone was analyzed by LC/MS/MS to evaluate CYP3A4 enzymatic activity.
The enzyme activity (% of control) at each preincubation point was calculated from the following equation: % of control=[(activity of test compound addition group)/(activity of test compound non-addition group)]×100.
The remaining activity (% remaining) after 60 minutes of preincubation was calculated from the following equation: Remaining activity (%)=[activity after 60 minutes (% of control60 min)]/[activity after 0 minutes (% of control0 min)]×100.

[3] = 10 mg/kg bodyweight/day oral QD for 21 days
[4] = 30 mg/kg bodyweight/day oral QD for 21 days

`CC1(C)C[C@H](c2ccccc2)Nc2c(C(=O)N3C[C@@H]4C[C@]4(c4ccc(Cl)c(Cl)c4)C3)cnn21` [Example 1, ((1S,5R)-1-(3,4-Dichlorophenyl)-3-azabicyclo[3.1.0]hex-3-yl)((5R)-7,7-dimethyl-5-phenyl-4,5,6,7-tetrahydropyrazolo[1,5-a]pyrimidin-3-yl)methanone] was tested, and the “Inducibility (%)” value (CYP3A) was 4.9%, the “Survival rates, log-rank test p” value (CSQ-Tg mice [1]; 10 mg/kg bodyweight/day co-administered with candesartan cilexetil (1 mg/kg bodyweight/day) QD 68 days vs candesartan cilexetil mono-administration (FIG. 2)) was under 0.001 and the “Survival rates, log-rank test p” value (CSQ-Tg mice [1]; 10 mg/kg bodyweight/day oral QD for 47 days vs vehicle administration group (FIG. 1)) was under 0.025. The “Left atrium weight (Mean ± standard deviation (mg))” value (CSQ-Tg mice [2]; [3]) was 10.7 ± 3.5 mg, the “Left ventricle weight (Mean ± standard deviation (mg))” value (CSQ-Tg mice [2]; [3]) was 160.1 ± 11.9 mg and the “Right atrium weight (Mean ± standard deviation (mg))” value (CSQ-Tg mice [2]; [3]) was 6.2 ± 3.1 mg. For the same compound, the “Right ventricle weight (Mean ± standard deviation (mg))” value (CSQ-Tg mice [2]; [3]) was 44.9 ± 5.1 mg, the “Heart weight (Mean ± standard deviation (mg))” value (CSQ-Tg mice [2]; [3]) was 221.9 ± 18.2 mg and the “Left atrium weight (Mean ± standard deviation (mg))” value (CSQ-Tg mice [2]; [4]) was 9.6 ± 2.6 mg. The “Left ventricle weight (Mean ± standard deviation (mg))” value (CSQ-Tg mice [2]; [4]) was 153.2 ± 12.7 mg, the “Right atrium weight (Mean ± standard deviation (mg))” value (CSQ-Tg mice [2]; [4]) was 5.8 ± 2.4 mg and the “Heart weight (Mean ± standard deviation (mg))” value (CSQ-Tg mice [2]; [4]) was 212.5 ± 21.9 mg. The “Right ventricle weight (Mean ± standard deviation (mg))” value (CSQ-Tg mice [2]; 30 mg/kg bodyweight/day oral QD for 21 days, ** Williams' multiple comparison test (p < 0.025)) was 43.9 ± 6.9** mg and the “Remaining Activity (%)” value (CYP3A4) was 86.0%.
